From PubChem BioAssay AID248 (DTP/NCI, 2004)
Values joined by “and” are separate entries in the source; they are usually repeats but may differ in a detail not shown here. Identical values can stand only once. Inconclusive results and toxic doses are left out. Cut-off read from the data, not from the text of the source: active = T/C of 150% or more; inactive = T/C below 125%.

Tested on: L1210 leukemia ip in BDF1 mice, survival T/C
Assay: NCI In Vivo Anticancer Drug Screen. Data for tumor model L1210 Leukemia (intraperitoneal) in B6D2F1 (BDF1) mice
Conditions: endpoint: mean survival time, higher = longer survival
Summary of the method: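 Each compound was tested against a transplantable tumor grown in mice. The endpoint was survival, with treated animals benchmarked against vehicle controls as a simple ratio.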

[1] = dose: 100.0 mg/kg/injection, schedule: Q01DX009 (ip), vehicle: Klucel (hydroxypropylcellulose) (HPC)
[2] = dose: 100.0 mg/kg/injection, schedule: Q04DX003 (ip), vehicle: Klucel (hydroxypropylcellulose) (HPC)
[3] = dose: 200.0 mg/kg/injection, schedule: Q01DX009 (ip), vehicle: Klucel (hydroxypropylcellulose) (HPC)
[4] = dose: 200.0 mg/kg/injection, schedule: Q04DX003 (ip), vehicle: Klucel (hydroxypropylcellulose) (HPC)
[5] = dose: 400.0 mg/kg/injection, schedule: Q04DX003 (ip), vehicle: Klucel (hydroxypropylcellulose) (HPC)
[6] = dose: 100.0 mg/kg/injection, schedule: Q01DX001 (ip), vehicle: saline with Tween-80
[7] = dose: 200.0 mg/kg/injection, schedule: Q01DX001 (ip), vehicle: saline with Tween-80
[8] = dose: 400.0 mg/kg/injection, schedule: Q01DX001 (ip), vehicle: saline with Tween-80
[9] = dose: 100.0 mg/kg/injection, schedule: Q01DX001 (ip), vehicle: saline
[10] = dose: 200.0 mg/kg/injection, schedule: Q01DX001 (ip), vehicle: saline
[11] = dose: 100.0 mg/kg/injection, schedule: Q01DX009 (ip), vehicle: saline with Tween-80
[12] = dose: 400.0 mg/kg/injection, schedule: Q01DX009 (ip), vehicle: saline with Tween-80

Measured: T/C

CCCOc1ccc(C=Nc2ccc(C)cc2)cc1
inactive: [1] 98 % of control | [2] 109 % of control | [3] 116 % of control | [4] 101 % of control | [5] 117 % of control

Nc1ccc(CCC(=O)Nc2ccc(S(=O)(=O)F)cc2)c(Cl)c1
inactive: [6] 101 % of control | [7] 93 % of control | [8] 88 % of control

CC(C)N(C)/N=N/N(C)C(C)C
inactive: [6] 101 % of control | [7] 103 % of control | [8] 117 % of control

OCC[N+]12CN3CN(CN(C3)C1)C2
inactive: dose: 100.0 mg/kg/injection, schedule: Q04DX002 (ip), vehicle: saline 113 % of control | dose: 200.0 mg/kg/injection, schedule: Q04DX002 (ip), vehicle: saline 106 % of control | dose: 400.0 mg/kg/injection, schedule: Q04DX002 (ip), vehicle: saline 106 % of control

Cc1ccccc1OCC(Cl)CN(C)C (stereo not given)
inactive: [9] 100 % of control | [10] 102 % of control

O=[N+]([O-])c1cc(C(F)(F)F)cc([N+](=O)[O-])c1N/N=C/c1ccc(F)cc1
inactive: dose: 25.0 mg/kg/injection, schedule: Q01DX009 (ip), vehicle: saline with Tween-80 87 % of control | dose: 50.0 mg/kg/injection, schedule: Q01DX009 (ip), vehicle: saline with Tween-80 94 % of control | [11] 92 % of control and 89 % of control | [12] 86 % of control

O=C1c2ccccc2C(=O)N1OCc1cc(Cl)sc1Cl
inactive: dose: 100.0 mg/kg/injection, schedule: Q04DX003 (ip), vehicle: saline with Tween-80 97 % of control | dose: 200.0 mg/kg/injection, schedule: Q04DX003 (ip), vehicle: saline with Tween-80 96 % of control | dose: 400.0 mg/kg/injection, schedule: Q04DX003 (ip), vehicle: saline with Tween-80 104 % of control

O=C(O)c1ccc(NC(=O)c2ccc(F)cc2)cc1
inactive: [11] 94 % of control | dose: 200.0 mg/kg/injection, schedule: Q01DX009 (ip), vehicle: saline with Tween-80 96 % of control | [12] 105 % of control

CCC1CSC(=S)N1 (stereo not given)
inactive: dose: 3.12 mg/kg/injection, schedule: Q01DX009 (ip), vehicle: acetone 92 % of control | dose: 3.12 mg/kg/injection, schedule: Q04DX003 (ip), vehicle: saline 103 % of control | dose: 6.25 mg/kg/injection, schedule: Q01DX009 (ip), vehicle: acetone 102 % of control | dose: 6.25 mg/kg/injection, schedule: Q04DX003 (ip), vehicle: saline 101 % of control | dose: 12.5 mg/kg/injection, schedule: Q04DX003 (ip), vehicle: saline 102 % of control

CS/C(N)=N\N=C/c1ccccc1
inactive: dose: 6.25 mg/kg/injection, schedule: Q01DX009 (ip), vehicle: saline 102 % of control | dose: 12.5 mg/kg/injection, schedule: Q01DX009 (ip), vehicle: saline 102 % of control | dose: 25.0 mg/kg/injection, schedule: Q01DX001 (ip), vehicle: saline 117 % of control | dose: 25.0 mg/kg/injection, schedule: Q01DX009 (ip), vehicle: saline 102 % of control | dose: 25.0 mg/kg/injection, schedule: Q04DX003 (ip), vehicle: saline 97 % of control | dose: 50.0 mg/kg/injection, schedule: Q01DX001 (ip), vehicle: saline 97 % of control | [9] 102 % of control and 105 % of control

CCC1(C2=CCCCC2)C(=O)NC(=S)NC1=O
inactive: dose: 75.0 mg/kg/injection, schedule: Q01DX001 (ip), vehicle: saline 102 % of control | dose: 150.0 mg/kg/injection, schedule: Q01DX001 (ip), vehicle: saline 106 % of control | dose: 300.0 mg/kg/injection, schedule: Q01DX001 (ip), vehicle: saline 104 % of control

c1ccc(CN=C2c3ccccc3C3(c4ccccc4)C2N3Cc2ccccc2)cc1 (stereo not given)
inactive: [1] 103 % of control | [2] 98 % of control | [3] 103 % of control | [4] 101 % of control | dose: 400.0 mg/kg/injection, schedule: Q01DX009 (ip), vehicle: Klucel (hydroxypropylcellulose) (HPC) 103 % of control | [5] 97 % of control

N#CC(C#N)=Cc1cc(Cl)ccc1O
inactive: [9] 96 % of control | [10] 96 % of control

CCOP(=O)(OCC)Oc1ccc(S(C)=O)cc1 (stereo not given)
inactive: dose: 5.0 mg/kg/injection, schedule: Q01DX001 (ip), vehicle: saline 114 % of control

CSc1cc2c(cc1NC(C)=O)C(=O)c1ccccc1-2
inactive: dose: 100.0 mg/kg/injection, schedule: Q01DX001 (ip), vehicle: carboxymethylcellulose (CMC) 90 % of control | dose: 200.0 mg/kg/injection, schedule: Q01DX001 (ip), vehicle: carboxymethylcellulose (CMC) 106 % of control | dose: 400.0 mg/kg/injection, schedule: Q01DX001 (ip), vehicle: carboxymethylcellulose (CMC) 109 % of control

Cc1ccc2c(c1)P(=O)(O)c1cc(F)ccc1O2
inactive: dose: 50.0 mg/kg/injection, schedule: Q01DX009 (ip), vehicle: saline 105 % of control | dose: 100.0 mg/kg/injection, schedule: Q01DX009 (ip), vehicle: saline 112 % of control | dose: 200.0 mg/kg/injection, schedule: Q01DX009 (ip), vehicle: saline 112 % of control | dose: 400.0 mg/kg/injection, schedule: Q01DX009 (ip), vehicle: saline 108 % of control

O=C(O)CCC(=O)NCCN(CCNC(=O)CCC(=O)O)C(=O)CCC(=O)O
inactive: dose: 100.0 mg/kg/injection, schedule: Q01DX001 (ip), vehicle: other 105 % of control | dose: 100.0 mg/kg/injection, schedule: Q01DX009 (ip), vehicle: water 100 % of control | dose: 100.0 mg/kg/injection, schedule: Q04DX003 (ip), vehicle: water 105 % of control | dose: 200.0 mg/kg/injection, schedule: Q01DX001 (ip), vehicle: other 100 % of control | dose: 200.0 mg/kg/injection, schedule: Q01DX009 (ip), vehicle: water 97 % of control | dose: 200.0 mg/kg/injection, schedule: Q04DX003 (ip), vehicle: water 98 % of control | dose: 400.0 mg/kg/injection, schedule: Q01DX001 (ip), vehicle: other 98 % of control | dose: 400.0 mg/kg/injection, schedule: Q01DX009 (ip), vehicle: water 97 % of control | dose: 400.0 mg/kg/injection, schedule: Q04DX003 (ip), vehicle: water 102 % of control

CN1CCC(OC(=O)C2CC(=O)NC(=O)C2)CC1
inactive: [2] 107 % of control | [4] 102 % of control | [5] 94 % of control

CN(C(=O)OCc1ccccc1)c1ccc(C(=O)NC(CC(=O)O)CC(=O)O)cc1
inactive: [9] 88 % of control | [10] 96 % of control | dose: 400.0 mg/kg/injection, schedule: Q01DX001 (ip), vehicle: saline 90 % of control

OC(c1ccc(Cl)cc1)(c1ccc(Cl)cc1)C(F)(Cl)Cl
inactive: dose: 26.6 mg/kg/injection, schedule: Q01DX Z (ip), vehicle: methylcellulose (MC) 87 % of control | dose: 40.0 mg/kg/injection, schedule: Q01DX Z (ip), vehicle: methylcellulose (MC) 107 % of control | dose: 60.0 mg/kg/injection, schedule: Q01DX Z (ip), vehicle: methylcellulose (MC) 96 % of control
